{
  "source": "patent US20240390349A1",
  "about": "“DOSING REGIMEN OF CAPSID INHIBITOR” (priority 2023, published 2024)",
  "key": {"[1]": {"settings": "human, in vivo, sc"}, "[2]": {"experiment": "Safety during oral bridging, studies of Examples 4-5 together"}, "HIV-1": {"system": "HIV-1", "experiment": "Efficacy of oral bridging (HIV-1 RNA, CD4), CALIBRATE", "assay_type": "in vivo, human", "description": "This Example describes results from a Phase 2 clinical study evaluating the safety and efficacy of LEN in combination with other antiretroviral (ARV) agents in ARV-naive people with HIV (PWH).\nThis Example describes a Phase 2, randomized, open-label, active-controlled, multicenter study. Participants in Treatment Groups 1 and 2 required oral bridging following a clinical hold imposed by the Food & Drug Administration on injectable LEN as the SC injection of LEN could not be administered within the protocol visit window. An Oral Bridging visit was completed every 10 to 12 weeks. Participants had to have met all of the inclusion criteria and none of the exclusion criteria to be included in the study."}},
  "note": "Values joined by “and” are separate entries in the source; they are usually repeats but may differ in a detail not shown here. Equal entries are not always repeated. “Also recorded” adds a separate entry of the source.",
  "data": [
    {"smiles": "CC(C)(C#Cc1ccc(-c2ccc(Cl)c3c(NS(C)(=O)=O)nn(CC(F)(F)F)c23)c([C@H](Cc2cc(F)cc(F)c2)NC(=O)Cn2nc(C(F)(F)F)c3c2C(F)(F)[C@@H]2C[C@H]32)n1)S(C)(=O)=O", "note": "[LEN, N—((S)-1-(3-(4-chloro-3-(methylsulfonamido)-1-(2,2,2-trifluoroethyl)-1H-indazol-7-yl)-6-(3-methyl-3-(methylsulfonyl)but-1-yn-1-yl)pyridin-2-yl)-2-(3,5-difluorophenyl)ethyl)-2-((3bS,4aR)-5,5-difluoro-3-(trifluoromethyl)-3b,4,4a,5-tetrahydro-1H-cyclopropa [3,4]cyclopenta [1,2-c]pyrazol-1-yl) acetamide]", "values": [
      {"measurement": "Lower 90% CI of LEN predose concentration", "setting": "[1]", "result": 56.2, "unit": "ng/mL"},
      {"measurement": "Mean LEN predose plasma concentration", "setting": "[1]", "result": 74.4, "unit": "ng/mL"},
      {"measurement": "Overall safety and tolerability of oral bridging LEN 300 mg weekly", "setting": "[2]; HTE and treatment-naive PWH", "result": "generally safe and well tolerated"},
      {"measurement": "Study drug-related SAEs", "setting": "[2]; oral bridging period", "result": "no study drug-related SAEs"},
      {"measurement": "CD4 count and CD4% during oral bridging (in words)", "setting": "HIV-1", "result": "generally stable or slightly increasing"},
      {"measurement": "Mean (SD) CD4 cell count at oral bridging baseline", "setting": "HIV-1; LEN total group", "result": "762 (285.2) /μL"},
      {"measurement": "Mean CD4% at oral bridging baseline", "setting": "HIV-1; LEN total group", "result": 34, "unit": "%"},
      {"measurement": "Proportion of participants with HIV-1 RNA<50 copies/mL", "setting": "HIV-1; LEN total group, OB baseline", "result": 99.2, "unit": "%"},
      {"measurement": "Proportion of participants with HIV-1 RNA<50 copies/mL", "setting": "HIV-1; Missing=Excluded, OB Week 10", "result": "77/77 (100) %"},
      {"measurement": "Proportion of participants with HIV-1 RNA<50 copies/mL", "setting": "HIV-1; Missing=Excluded, OB Week 20", "result": "58/58 (100) %"},
      {"measurement": "Proportion of participants with HIV-1 RNA<50 copies/mL", "setting": "HIV-1; Missing=Excluded, OB Week 30", "result": "5/5 (100) %"},
      {"measurement": "Proportion of participants with HIV-1 RNA<50 copies/mL", "setting": "HIV-1; Missing=Excluded, all subsequent oral bridging time points, all treatment groups", "result": 100, "unit": "%"},
      {"measurement": "Proportion of participants with HIV-1 RNA<50 copies/mL", "setting": "HIV-1; Missing=Failure, Week 10, LEN total", "result": 97.5, "unit": "%"},
      {"measurement": "Proportion of participants with HIV-1 RNA<50 copies/mL", "setting": "HIV-1; Missing=Failure, Week 10, SC LEN total group", "result": 97.5, "unit": "%"},
      {"measurement": "Proportion of participants with HIV-1 RNA<50 copies/mL", "setting": "HIV-1; Missing=Failure, Week 10, oral LEN group", "result": 97.4, "unit": "%"},
      {"measurement": "Proportion of participants with HIV-1 RNA<50 copies/mL", "setting": "HIV-1; Missing=Failure, Week 20, LEN total", "result": 100, "unit": "%"},
      {"measurement": "Proportion of participants with HIV-1 RNA<50 copies/mL", "setting": "HIV-1; Missing=Failure, Week 20, SC LEN total group", "result": 100, "unit": "%"},
      {"measurement": "Proportion of participants with HIV-1 RNA<50 copies/mL", "setting": "HIV-1; Missing=Failure, Week 20, oral LEN group", "result": 100, "unit": "%"},
      {"measurement": "Mean CD4% at oral bridging baseline", "setting": "HIV-1; SC LEN total group", "result": 35, "unit": "%"},
      {"measurement": "Proportion of participants with HIV-1 RNA<50 copies/mL", "setting": "HIV-1; SC LEN total group (received OB), OB Baseline", "result": "100% and 82/82 (100) %"},
      {"measurement": "Mean change from oral bridging baseline in CD4%", "setting": "HIV-1; Week 10, LEN total group", "result": 1, "unit": "%"},
      {"measurement": "Mean change from oral bridging baseline in CD4 cell count", "setting": "HIV-1; Week 10, LEN total group", "result": 35, "unit": "µL⁻¹"},
      {"measurement": "Mean change from oral bridging baseline in CD4%", "setting": "HIV-1; Week 10, SC LEN total group", "result": 0, "unit": "%"},
      {"measurement": "Mean change from oral bridging baseline in CD4 cell count", "setting": "HIV-1; Week 10, SC LEN total group", "result": 26, "unit": "µL⁻¹"},
      {"measurement": "Mean change from oral bridging baseline in CD4%", "setting": "HIV-1; Week 10, oral LEN group", "result": 1, "unit": "%"},
      {"measurement": "Mean change from oral bridging baseline in CD4 cell count", "setting": "HIV-1; Week 10, oral LEN group", "result": 55, "unit": "µL⁻¹"},
      {"measurement": "Mean change from oral bridging baseline in CD4%", "setting": "HIV-1; Week 20, LEN total group", "result": 0, "unit": "%"},
      {"measurement": "Mean change from oral bridging baseline in CD4 cell count", "setting": "HIV-1; Week 20, LEN total group", "result": 0, "unit": "µL⁻¹"},
      {"measurement": "Mean change from oral bridging baseline in CD4%", "setting": "HIV-1; Week 20, SC LEN total group", "result": 0, "unit": "%"},
      {"measurement": "Mean change from oral bridging baseline in CD4 cell count", "setting": "HIV-1; Week 20, SC LEN total group", "result": -31, "unit": "µL⁻¹"},
      {"measurement": "Mean change from oral bridging baseline in CD4%", "setting": "HIV-1; Week 20, oral LEN group", "result": 1, "unit": "%"},
      {"measurement": "Mean change from oral bridging baseline in CD4 cell count", "setting": "HIV-1; Week 20, oral LEN group", "result": 106, "unit": "µL⁻¹"},
      {"measurement": "Mean CD4% at oral bridging baseline", "setting": "HIV-1; oral LEN group", "result": 33, "unit": "%"},
      {"measurement": "Proportion of participants with HIV-1 RNA<50 copies/mL", "setting": "HIV-1; oral LEN group, OB baseline", "result": 97.4, "unit": "%"},
      {"measurement": "Virologic suppression / virologic failure during oral bridging (in words)", "setting": "HIV-1; treatment-naive participants", "result": "remained virologically suppressed; also recorded: No treatment-naive participants from the study described in Example 4 experienced virologic failure"}
    ]}
  ]
}
